Values belong to the molecule of their own block, whether it stands above or below them.
Tests used:
Plasminogen [1] = biological target: T1, Plasminogen (Homo sapiens, UniProt P00747); test: Inhibition of human plasmin using S-2251 as substrate after 30 mins by spectrophotometric method
[2] = biological target: T2, Tissue-type plasminogen activator (Homo sapiens, UniProt P00750); test: Inhibition of tissue-type plasminogen activator (unknown origin)
[3] = biological target: T3, Urokinase-type plasminogen activator (Homo sapiens, UniProt P00749); test: Inhibition of urokinase-type plasminogen activator (unknown origin)
Plasminogen [4] = biological target: T1, Plasminogen; test: Inhibition of plasmin (unknown origin)
Plasminogen [5] = biological target: T1, Plasminogen; test: Inhibition of plasmin (unknown origin) using D-Val-Leu-Lys-p-nitroanilide as substrate
[6] = biological target: Vitamin K-dependent protein C (Homo sapiens, UniProt P04070); test: Inhibition of human activated protein […] C using H-D-Lys(Cbo)-Pro-Arg-pNA as substrate
Chain of Vitamin K-dependent protein C (P04070 43-197 limits assumed): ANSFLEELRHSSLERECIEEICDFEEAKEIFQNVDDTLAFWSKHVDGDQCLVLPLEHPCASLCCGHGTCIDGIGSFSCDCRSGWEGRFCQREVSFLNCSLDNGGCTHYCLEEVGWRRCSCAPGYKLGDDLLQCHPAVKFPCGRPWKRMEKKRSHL
Chain of Vitamin K-dependent protein C (P04070 212-461 limits assumed): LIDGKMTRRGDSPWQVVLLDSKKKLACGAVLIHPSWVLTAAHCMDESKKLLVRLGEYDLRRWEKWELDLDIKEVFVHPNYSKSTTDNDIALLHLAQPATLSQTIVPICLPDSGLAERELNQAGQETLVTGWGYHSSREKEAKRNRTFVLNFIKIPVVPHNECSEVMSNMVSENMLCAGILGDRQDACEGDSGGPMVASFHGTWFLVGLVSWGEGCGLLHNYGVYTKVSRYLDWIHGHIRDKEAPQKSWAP

[7] = Inhibition of human urinary kallikrein using H-D-Val-Leu-Arg-pNA as substrate
[8] = biological target: T4, Complement C1s subcomponent (Homo sapiens, UniProt P09871); test: Inhibition of human Complement C1s subcomponent using Val-Ser-Arg-pNA as substrate
T4 sequence (P09871 whole entry): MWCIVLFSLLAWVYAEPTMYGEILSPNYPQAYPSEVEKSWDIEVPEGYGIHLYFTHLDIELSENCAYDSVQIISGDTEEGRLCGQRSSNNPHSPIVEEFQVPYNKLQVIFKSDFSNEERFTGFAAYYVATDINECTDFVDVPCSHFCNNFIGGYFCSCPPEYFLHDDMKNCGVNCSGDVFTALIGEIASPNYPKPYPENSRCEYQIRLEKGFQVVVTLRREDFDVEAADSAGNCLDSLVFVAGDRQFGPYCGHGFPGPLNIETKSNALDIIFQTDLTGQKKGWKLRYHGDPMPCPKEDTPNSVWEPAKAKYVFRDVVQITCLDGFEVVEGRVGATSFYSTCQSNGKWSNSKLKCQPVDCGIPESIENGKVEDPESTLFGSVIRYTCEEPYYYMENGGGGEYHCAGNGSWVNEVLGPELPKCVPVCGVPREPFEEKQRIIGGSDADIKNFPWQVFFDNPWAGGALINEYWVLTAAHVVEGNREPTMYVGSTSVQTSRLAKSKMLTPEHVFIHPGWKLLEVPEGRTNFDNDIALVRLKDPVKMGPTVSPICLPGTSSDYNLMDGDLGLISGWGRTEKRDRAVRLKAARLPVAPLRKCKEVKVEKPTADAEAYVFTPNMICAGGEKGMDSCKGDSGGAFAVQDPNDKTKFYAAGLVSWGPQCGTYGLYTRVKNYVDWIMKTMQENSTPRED

[9] = biological target: T5, Complement C1r subcomponent (Homo sapiens, UniProt P00736); test: Inhibition of human Complement C1r subcomponent using Val-Ser-Arg-pNA as substrate
T5 sequence (P00736 whole entry): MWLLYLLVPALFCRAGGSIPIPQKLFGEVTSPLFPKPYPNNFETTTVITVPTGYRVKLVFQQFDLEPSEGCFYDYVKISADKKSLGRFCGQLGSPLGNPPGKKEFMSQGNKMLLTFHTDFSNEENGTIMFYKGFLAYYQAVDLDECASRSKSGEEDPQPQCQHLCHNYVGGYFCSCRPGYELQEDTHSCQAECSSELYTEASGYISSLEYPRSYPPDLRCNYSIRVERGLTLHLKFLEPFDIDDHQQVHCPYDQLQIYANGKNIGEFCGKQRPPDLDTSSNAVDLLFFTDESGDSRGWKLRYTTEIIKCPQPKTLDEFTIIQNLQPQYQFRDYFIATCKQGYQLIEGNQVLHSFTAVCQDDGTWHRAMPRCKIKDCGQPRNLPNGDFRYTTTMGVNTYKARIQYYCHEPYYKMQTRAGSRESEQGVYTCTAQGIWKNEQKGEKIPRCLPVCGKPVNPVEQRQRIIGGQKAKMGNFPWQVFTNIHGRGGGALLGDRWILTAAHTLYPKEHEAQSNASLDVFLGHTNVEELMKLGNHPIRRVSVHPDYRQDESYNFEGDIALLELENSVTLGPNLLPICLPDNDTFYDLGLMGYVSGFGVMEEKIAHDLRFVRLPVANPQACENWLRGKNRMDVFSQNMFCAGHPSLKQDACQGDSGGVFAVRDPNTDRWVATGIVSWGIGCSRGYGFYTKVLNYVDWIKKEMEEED

Prothrombin = Prothrombin (Homo sapiens, UniProt P00734); test: Inhibition of human factor 2a using Mes-d-Cha-Gly-Arg-pNA as substrate
Coagulation factor X = Coagulation factor X (Homo sapiens, UniProt P00742); test: Inhibition of human factor 10a using MeOCO-d-Cha-Gly-Arg-pNA as substrate
Chain of Coagulation factor X (P00742 41-179 limits assumed): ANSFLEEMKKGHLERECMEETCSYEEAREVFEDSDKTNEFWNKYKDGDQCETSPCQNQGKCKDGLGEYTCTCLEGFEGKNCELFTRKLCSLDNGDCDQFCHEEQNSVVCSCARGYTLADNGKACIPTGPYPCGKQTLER
Chain of Coagulation factor X (P00742 235-488 limits assumed): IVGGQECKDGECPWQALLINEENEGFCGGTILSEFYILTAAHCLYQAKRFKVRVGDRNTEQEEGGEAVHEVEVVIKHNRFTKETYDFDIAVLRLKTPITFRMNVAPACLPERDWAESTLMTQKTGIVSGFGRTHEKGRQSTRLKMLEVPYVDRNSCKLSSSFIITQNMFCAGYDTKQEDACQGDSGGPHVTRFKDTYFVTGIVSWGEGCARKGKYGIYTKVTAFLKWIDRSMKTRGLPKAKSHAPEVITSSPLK

Coagulation factor XII = biological target: T6, Coagulation factor XII (Homo sapiens, UniProt P00748); test: Inhibition of human factor 12a using CHA-Gly-Arg- pNA as substrate
T6 sequence (P00748 whole entry): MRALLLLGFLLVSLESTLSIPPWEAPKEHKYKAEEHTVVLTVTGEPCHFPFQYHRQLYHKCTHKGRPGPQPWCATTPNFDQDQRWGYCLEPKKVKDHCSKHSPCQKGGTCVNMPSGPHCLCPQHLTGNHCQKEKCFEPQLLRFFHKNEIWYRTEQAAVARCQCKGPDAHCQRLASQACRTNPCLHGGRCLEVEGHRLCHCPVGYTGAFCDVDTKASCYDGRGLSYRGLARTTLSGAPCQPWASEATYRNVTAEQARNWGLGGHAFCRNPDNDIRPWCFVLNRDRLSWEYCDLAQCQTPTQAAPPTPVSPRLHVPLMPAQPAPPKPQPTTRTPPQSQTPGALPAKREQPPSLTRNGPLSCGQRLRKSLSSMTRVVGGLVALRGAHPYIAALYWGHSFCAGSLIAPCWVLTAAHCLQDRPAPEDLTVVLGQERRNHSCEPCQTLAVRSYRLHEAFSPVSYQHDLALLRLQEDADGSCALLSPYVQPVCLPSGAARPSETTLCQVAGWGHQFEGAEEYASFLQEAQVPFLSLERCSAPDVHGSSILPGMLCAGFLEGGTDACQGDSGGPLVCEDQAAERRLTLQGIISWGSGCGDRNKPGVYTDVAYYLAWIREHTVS

[10] = biological target: T2, Tissue-type plasminogen activator; test: Inhibition of human tissue-type plasminogen activator using Mes-d-Cha- Gly-Arg-pNA as substrate
Plasminogen [11] = biological target: T1, Plasminogen; test: Inhibition of human plasmin assessed as km using S-2251 as the substrate
Plasminogen [12] = biological target: T1, Plasminogen; test: Inhibition of human plasmin
[13] = biological target: T3, Urokinase-type plasminogen activator; test: Inhibition of human urokinase-type plasminogen activator using S-2444 as substrate
Blood = test: Anti-fibrinolytic activity in human whole blood assessed as reduction in clot lysis incubated for 5 mins in presence of tissue-type plasminogen activator by rotational thromboelastometry; format: functional, tissue-based
[14] = compound: CC[C@@H](C)[C@@H](N)C(=O)N[C@@H](Cc1ccccc1)C(=O)N[C@@H](CCCCN)C(=O)Nc1ccc([N+](=O)[O-])cc1; test: (§1) Inhibition of human plasmin assessed as km by Lineweaver-burk method
[15] = compound: NCCCC[C@H](NC(=O)[C@H](Cc1ccccc1)NC(=O)[C@@H]1CCC(=O)N1)C(=O)Nc1ccc([N+](=O)[O-])cc1; test: as §1

T2 sequence (P00750 whole entry): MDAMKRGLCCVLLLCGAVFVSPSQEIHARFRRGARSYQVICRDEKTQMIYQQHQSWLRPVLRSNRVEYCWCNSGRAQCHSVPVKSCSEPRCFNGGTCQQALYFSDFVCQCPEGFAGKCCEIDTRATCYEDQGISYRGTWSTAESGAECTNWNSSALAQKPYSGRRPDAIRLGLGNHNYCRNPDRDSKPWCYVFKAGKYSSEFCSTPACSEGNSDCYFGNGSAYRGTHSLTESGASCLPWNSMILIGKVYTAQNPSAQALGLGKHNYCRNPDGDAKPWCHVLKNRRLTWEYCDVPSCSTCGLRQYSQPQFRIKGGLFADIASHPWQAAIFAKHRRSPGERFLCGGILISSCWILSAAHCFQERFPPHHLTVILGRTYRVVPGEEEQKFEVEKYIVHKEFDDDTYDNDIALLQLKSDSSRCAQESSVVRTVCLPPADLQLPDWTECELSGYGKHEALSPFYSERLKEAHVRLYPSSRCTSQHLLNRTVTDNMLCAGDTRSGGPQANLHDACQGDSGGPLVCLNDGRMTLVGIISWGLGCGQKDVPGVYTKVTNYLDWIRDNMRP

Ki (Plasminogen [5]): 5 to 10 µM
Molecule: O=C(CCC1CCCC(NC(=O)[C@H](Cc2c[nH]c3ccccc23)NC(=O)OCc2ccccc2)C1=O)N[C@@H](Cc1c[nH]c2ccccc12)C(=O)O (mixture of isomers)

Ki [13]: 2000 µM
IC50 (Blood): 2.75 µM
Molecule: NC[C@H]1CC[C@H](C(=O)O)CC1 [TRANEXAMIC ACID]

Second part, the molecule before the results:

Molecule: N=C(N)Nc1ccc(C(=O)Oc2ccc(S(N)(=O)=O)cc2)cc1
Ki (Plasminogen [1]): 0.31 µM

Molecule: N=C(N)c1ccc(CNC(=O)[C@@H]2CCN2C(=O)[C@H](NCC(=O)O)C2CCCCC2)cc1
Ki [2]: 0.9 µM
Ki [3]: 6.3 µM
Ki (Plasminogen [4]): 0.7 µM

Molecule: N=C(N)c1ccc(CNC(=O)[C@H](CCC2CCNCC2)NC(=O)[C@@H](CCC2CCN(C(=O)C3CC3)CC2)NS(=O)(=O)Cc2ccccc2)cc1
Ki [6]: > 1 µM
Ki [7]: > 1 µM
Ki [8]: > 1 µM
Ki [9]: > 1 µM
Ki (Prothrombin): > 1 µM
Ki (Coagulation factor X): > 1 µM
Ki (Coagulation factor XII): > 1 µM
Ki [10]: > 1 µM

Molecule: CC[C@@H](C)[C@@H](N)C(=O)N[C@@H](Cc1ccccc1)C(=O)N[C@@H](CCCCN)C(=O)Nc1ccc([N+](=O)[O-])cc1
Km (Plasminogen [11]): 30 µM

Molecule: N=C(N)c1cccc(C[C@H](NS(=O)(=O)c2ccc3ccccc3c2)C(=O)N2CCCC(C(=O)NCc3cccs3)C2)c1 (some centres undefined)
Ki (Plasminogen [12]): 0.14 µM

B1: Plasminogen (Homo sapiens), P00747 (protein)
chain: MEHKEVVLLLLLFLKSGQGEPLDDYVNTQGASLFSVTKKQLGAGSIEECAAKCEEDEEFTCRAFQYHSKEQQCVIMAENRKSSIIIRMRDVVLFEKKVYLSECKTGNGKNYRGTMSKTKNGITCQKWSSTSPHRPRFSPATHPSEGLEENYCRNPDNDPQGPWCYTTDPEKRYDYCDILECEEECMHCSGENYDGKISKTMSGLECQAWDSQSPHAHGYIPSKFPNKNLKKNYCRNPDRELRPWCFTTDPNKRWELCDIPRCTTPPPSSGPTYQCLKGTGENYRGNVAVTVSGHTCQHWSAQTPHTHNRTPENFPCKNLDENYCRNPDGKRAPWCHTTNSQVRWEYCKIPSCDSSPVSTEQLAPTAPPELTPVVQDCYHGDGQSYRGTSSTTTTGKKCQSWSSMTPHRHQKTPENYPNAGLTMNYCRNPDADKGPWCFTTDPSVRWEYCNLKKCSGTEASVVAPPPVVLLPDVETPSEEDCMFGNGKGYRGKRATTVTGTPCQDWAAQEPHRHSIFTPETNPRAGLEKNYCRNPDGDVGGPWCYTTNPRKLYDYCDVPQCAAPSFDCGKPQVEPKKCPGRVVGGCVAHPHSWPWQVSLRTRFGMHFCGGTLISPEWVLTAAHCLEKSPRPSSYKVILGAHQEVNLEPHVQEIEVSRLFLEPTRKDIALLKLSSPAVITDKVIPACLPSPNYVVADRTECFITGWGETQGTFGAGLLKEAQLPVIENKVCNRYEFLNGRVQSTELCAGHLAGGTDSCQGDSGGPLVCFEKDKYILQGVTSWGLGCARPNKPGVYVRVSRFVTWIEGVMRNN
Km [14]: 20 µM
Km [15]: 300 µM
